Laboratory results as given in ChEMBL document CHEMBL1909046, “DrugMatrix in vitro pharmacology data”.

Experiments:
[1] = biological target: 5-hydroxytryptamine receptor 4 (Cavia porcellus, UniProt O70528); type: cell membranes, Dunkin-Hartley, Striatum, Membrane; note: in other assays of this panel Not Active means under 50% inhibition at 10 µM
[2] = biological target: T1, Alpha-1D adrenergic receptor (Homo sapiens, UniProt P25100); type: cell membranes, HEK293, Membrane; note: in other assays of this panel Not Active means under 50% inhibition at 10 µM
T1 sequence (P25100 whole entry): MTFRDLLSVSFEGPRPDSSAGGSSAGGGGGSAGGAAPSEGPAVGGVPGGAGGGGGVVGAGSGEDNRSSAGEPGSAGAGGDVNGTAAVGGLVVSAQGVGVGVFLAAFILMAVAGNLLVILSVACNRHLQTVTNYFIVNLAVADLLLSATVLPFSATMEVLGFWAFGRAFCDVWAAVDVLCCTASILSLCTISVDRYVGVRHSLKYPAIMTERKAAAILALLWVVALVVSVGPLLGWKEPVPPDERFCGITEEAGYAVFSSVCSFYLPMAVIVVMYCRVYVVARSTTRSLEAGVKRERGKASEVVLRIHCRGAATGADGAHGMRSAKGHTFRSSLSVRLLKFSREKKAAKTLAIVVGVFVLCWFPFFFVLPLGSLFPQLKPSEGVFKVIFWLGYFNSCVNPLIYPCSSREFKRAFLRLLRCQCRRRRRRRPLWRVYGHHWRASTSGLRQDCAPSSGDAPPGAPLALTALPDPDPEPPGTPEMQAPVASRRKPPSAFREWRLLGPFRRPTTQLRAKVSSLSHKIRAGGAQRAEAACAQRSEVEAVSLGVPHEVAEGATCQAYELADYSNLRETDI

[3] = biological target: T2, Vasoactive intestinal polypeptide receptor 1 (Homo sapiens, UniProt P32241); type: cell membranes, Membrane; conditions: ht-29; note: in other assays of this panel Not Active means under 50% inhibition at 10 µM
T2 sequence (P32241 whole entry): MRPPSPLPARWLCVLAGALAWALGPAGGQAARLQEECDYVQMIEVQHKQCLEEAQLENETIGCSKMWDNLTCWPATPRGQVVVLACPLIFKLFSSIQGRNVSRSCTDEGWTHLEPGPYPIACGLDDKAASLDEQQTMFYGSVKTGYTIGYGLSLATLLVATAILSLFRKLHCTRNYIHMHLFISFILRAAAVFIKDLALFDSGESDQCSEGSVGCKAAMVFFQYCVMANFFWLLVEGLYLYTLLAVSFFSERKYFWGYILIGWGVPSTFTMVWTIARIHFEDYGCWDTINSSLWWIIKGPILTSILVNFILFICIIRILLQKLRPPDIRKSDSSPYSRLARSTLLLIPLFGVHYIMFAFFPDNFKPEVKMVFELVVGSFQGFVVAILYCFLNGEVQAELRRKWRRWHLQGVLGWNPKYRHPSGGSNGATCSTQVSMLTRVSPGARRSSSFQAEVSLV

[4] = biological target: T3, D(4) dopamine receptor (Homo sapiens, UniProt P21917); test: DRUGMATRIX: Dopamine D4.2 radioligand binding (ligand: [3H] Spiperone); type: cell membranes, CHO-K1, Membrane; conditions: cho-k1; Not Active = under 50% inhibition at 10 µM
T3 sequence (P21917 whole entry): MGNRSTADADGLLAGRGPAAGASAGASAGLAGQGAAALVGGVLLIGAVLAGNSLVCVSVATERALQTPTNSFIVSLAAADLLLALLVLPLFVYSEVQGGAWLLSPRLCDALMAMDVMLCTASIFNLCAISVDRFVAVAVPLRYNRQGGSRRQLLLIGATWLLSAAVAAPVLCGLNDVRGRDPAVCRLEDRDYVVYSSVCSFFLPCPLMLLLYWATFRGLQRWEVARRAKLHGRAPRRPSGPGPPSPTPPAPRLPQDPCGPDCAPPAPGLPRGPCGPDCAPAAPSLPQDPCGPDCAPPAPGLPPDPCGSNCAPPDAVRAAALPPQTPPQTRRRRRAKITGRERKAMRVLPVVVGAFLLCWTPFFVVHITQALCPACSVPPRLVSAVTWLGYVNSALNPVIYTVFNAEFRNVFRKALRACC

[5] = biological target: Prostaglandin G/H synthase 1 (Homo sapiens, UniProt P23219); test: biochemical; type: tissue-based, Platelet; conditions: platelet;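 note: inhibition of COX-1 enzyme activity, with arachidonic acid supplied as substrate; in other assays of this panel Not Active means under 50% inhibition at 10 µM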
Sequence of Prostaglandin G/H synthase 1 (P23219 whole entry): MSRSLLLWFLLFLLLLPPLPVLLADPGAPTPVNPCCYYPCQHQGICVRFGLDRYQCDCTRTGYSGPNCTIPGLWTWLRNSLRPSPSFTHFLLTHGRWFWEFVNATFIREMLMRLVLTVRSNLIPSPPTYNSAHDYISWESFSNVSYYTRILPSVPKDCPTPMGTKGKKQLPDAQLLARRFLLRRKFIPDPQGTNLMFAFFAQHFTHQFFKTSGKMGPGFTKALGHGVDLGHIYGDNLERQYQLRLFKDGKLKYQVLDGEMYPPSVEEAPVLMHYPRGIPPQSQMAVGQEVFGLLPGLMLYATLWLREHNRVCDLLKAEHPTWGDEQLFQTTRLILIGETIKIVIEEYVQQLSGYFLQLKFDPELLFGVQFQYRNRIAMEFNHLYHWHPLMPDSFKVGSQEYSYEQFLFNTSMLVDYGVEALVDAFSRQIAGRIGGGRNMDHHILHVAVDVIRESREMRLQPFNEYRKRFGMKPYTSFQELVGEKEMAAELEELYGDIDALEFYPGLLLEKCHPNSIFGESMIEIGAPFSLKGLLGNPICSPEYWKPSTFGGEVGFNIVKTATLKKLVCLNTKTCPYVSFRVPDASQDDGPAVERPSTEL

[6] = biological target: T4, C-X-C chemokine receptor type 1 (Homo sapiens, UniProt P25024); note: in other assays of this panel Not Active means under 50% inhibition at 10 µM
T4 sequence (P25024 whole entry): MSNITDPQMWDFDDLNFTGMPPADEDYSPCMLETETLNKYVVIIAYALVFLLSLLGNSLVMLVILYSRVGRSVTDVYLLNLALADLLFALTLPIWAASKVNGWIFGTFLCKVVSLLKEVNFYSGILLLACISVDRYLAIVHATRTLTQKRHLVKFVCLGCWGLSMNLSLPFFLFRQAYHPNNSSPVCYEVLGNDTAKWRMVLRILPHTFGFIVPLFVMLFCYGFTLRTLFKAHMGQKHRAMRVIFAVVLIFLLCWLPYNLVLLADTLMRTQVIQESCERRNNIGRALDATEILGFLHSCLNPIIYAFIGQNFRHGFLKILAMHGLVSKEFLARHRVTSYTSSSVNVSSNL

[7] = biological target: T5, B2 bradykinin receptor (Homo sapiens, UniProt P30411); type: cell membranes, Membrane; conditions: chem-1; note: in other assays of this panel Not Active means under 50% inhibition at 10 µM
T5 sequence (P30411 whole entry): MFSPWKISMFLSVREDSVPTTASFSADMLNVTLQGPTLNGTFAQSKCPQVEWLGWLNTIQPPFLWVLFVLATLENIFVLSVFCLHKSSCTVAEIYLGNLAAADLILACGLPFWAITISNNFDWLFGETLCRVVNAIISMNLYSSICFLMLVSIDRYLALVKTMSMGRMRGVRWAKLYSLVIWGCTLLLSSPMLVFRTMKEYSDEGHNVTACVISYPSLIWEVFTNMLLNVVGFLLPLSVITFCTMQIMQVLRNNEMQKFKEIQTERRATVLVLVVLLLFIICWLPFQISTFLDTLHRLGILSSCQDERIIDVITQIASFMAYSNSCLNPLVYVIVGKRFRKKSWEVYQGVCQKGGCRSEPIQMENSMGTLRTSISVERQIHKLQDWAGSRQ

[8] = DRUGMATRIX: GABAA, Flunitrazepam, Central radioligand binding (ligand: [3H] Flunitrazepam); type: cell membranes, Rattus norvegicus, Wistar, Brain, Membrane; conditions: Not Active = under 50% inhibition at 10 µM

Sequence of 5-hydroxytryptamine receptor 4 (O70528 whole entry): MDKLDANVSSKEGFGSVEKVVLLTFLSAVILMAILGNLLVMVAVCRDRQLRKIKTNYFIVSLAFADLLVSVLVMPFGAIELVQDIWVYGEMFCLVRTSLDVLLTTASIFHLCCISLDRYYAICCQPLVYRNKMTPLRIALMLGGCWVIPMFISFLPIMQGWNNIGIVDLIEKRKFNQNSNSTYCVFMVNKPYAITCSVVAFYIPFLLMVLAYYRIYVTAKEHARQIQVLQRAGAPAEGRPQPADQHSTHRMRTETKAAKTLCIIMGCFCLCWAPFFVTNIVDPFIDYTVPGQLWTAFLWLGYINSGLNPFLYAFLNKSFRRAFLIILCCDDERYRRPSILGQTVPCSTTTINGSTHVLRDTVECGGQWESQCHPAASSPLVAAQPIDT

## CN1C2CCCC1CC(NC(=O)c1nn(C)c3ccccc13)C2 (stereo not drawn) [GRANISETRON]
[1]
  IC50: Not Active
[2]; hek293
  IC50: Not Active
[3]
  IC50: Not Active
[4]
  IC50: Not Active
[5]
  IC50: Not Active
[6]
  IC50: Not Active
[7]
  IC50: Not Active

## Nc1nc2c(c(=O)[nH]1)N(C=O)C(CNc1ccc(C(=O)N[C@@H](CCC(=O)O)C(=O)O)cc1)CN2 (stereo partly drawn) [LEUCOVORIN]
[1]
  IC50: Not Active
[2]; hek293
  IC50: Not Active
[3]
  IC50: Not Active
[4]
  IC50: Not Active
[8]
  IC50: Not Active
  Ki: Not Active
[5]
  IC50: Not Active
[6]
  IC50: Not Active
[7]
  IC50: Not Active

## C[C@@H](O)[C@H]1C(=O)N2C(C(=O)O)=C(S[C@@H]3CN[C@H](C(=O)N(C)C)C3)[C@H](C)[C@H]12 [MEROPENEM]
[1]
  IC50: Not Active
[2]; hek293
  IC50: Not Active
[3]
  IC50: Not Active
[4]
  IC50: Not Active
[8]
  IC50: Not Active
  Ki: Not Active
[5]
  IC50: Not Active
[6]
  IC50: Not Active
[7]
  IC50: Not Active

## CC[C@@H](CO)NC(=O)[C@@H]1C=C2c3cccc4c3c(cn4C)C[C@H]2N(C)C1 [METHYSERGIDE]
[1]
  IC50: Not Active
[2]; hek293
  IC50: Not Active
[3]
  IC50: Not Active
[4]
  IC50: Not Active
[5]
  IC50: Not Active
[6]
  IC50: Not Active
[7]
  IC50: Not Active

## CCN(CC)CC#CCOC(=O)C(O)(c1ccccc1)C1CCCCC1 (stereo not drawn) [OXYBUTYNIN]
[1]
  IC50: Not Active
[2]; hek293
  IC50: Not Active
[3]
  IC50: Not Active
[4]
  IC50: Not Active
[5]
  IC50: Not Active
[6]
  IC50: Not Active
[7]
  IC50: Not Active

## O=P(O)(O)C(O)(Cc1cccnc1)P(=O)(O)O [RISEDRONIC ACID]
[1]
  IC50: Not Active
[2]; hek293
  IC50: Not Active
[3]
  IC50: Not Active
[4]
  IC50: Not Active
[8]
  IC50: Not Active
  Ki: Not Active
[5]
  IC50: Not Active
[6]
  IC50: Not Active
[7]
  IC50: Not Active

## CN(CCOc1ccc(CC2SC(=O)NC2=O)cc1)c1ccccn1 (stereo not drawn) [ROSIGLITAZONE]
[1]
  IC50: Not Active
[2]; hek293
  IC50: Not Active
[3]
  IC50: Not Active
[4]
  IC50: Not Active
[8]
  IC50: Not Active
  Ki: Not Active
[5]
  IC50: Not Active
[6]
  IC50: Not Active
[7]
  IC50: Not Active

## C=C(C)[C@H]1Cc2c(ccc3c2O[C@@H]2COc4cc(OC)c(OC)cc4[C@@H]2C3=O)O1 [ROTENONE]
[1]
  IC50: Not Active
[2]; hek293
  IC50: Not Active
[3]
  IC50: Not Active
[4]
  IC50: Not Active
[8]
  IC50: Not Active
  Ki: Not Active
[5]
  IC50: Not Active
[6]
  IC50: Not Active
[7]
  IC50: Not Active

## C#CCN(C)[C@H](C)Cc1ccccc1 [SELEGILINE]
[1]
  IC50: Not Active
[2]; hek293
  IC50: Not Active
[3]
  IC50: Not Active
[4]
  IC50: Not Active
[8]
  IC50: Not Active
  Ki: Not Active
[5]
  IC50: Not Active
[6]
  IC50: Not Active
[7]
  IC50: Not Active

## O=c1n(CCCN2CCN(c3cccc(Cl)c3)CC2)nc2ccccn12 [TRAZODONE]
[1]
  IC50: Not Active
[2]; read-out: IC50
  IC50: 265 nM
[2]; read-out: Ki
  Ki: 130 nM
[3]
  IC50: Not Active
[4]
  IC50: Not Active
[5]
  IC50: Not Active
[6]
  IC50: Not Active
[7]
  IC50: Not Active
